Results: patent publication US20260256792A1, “TREATMENT OF CHRONIC SPONTANEOUS URTICARIA BY ADMINISTERING (R)-2-[3-[4-AMINO-3-(2-FLUORO-4-PHENOXY-PHENYL)PYRAZOLO[3,4-D]PYRIMIDIN-1-YL]PIPERIDINE-1-CARBONYL]-4-METHYL-4-[4-(OXETAN-3-YL)PIPERAZIN-1-YL]PENT-2-ENENITRILE” (priority 2023, published 2026)

Tested on: moderate-to-severe chronic spontaneous urticaria (CSU)
Assay: Phase 2 CSU study: itch severity score over 7 days (ISS7)
Assay type: in vivo, human
From the text: The study comprises a 12 week, randomized, double-blind, placebo-controlled, multi-center, dose-ranging efficacy and safety phase, followed by a 40 week open label extension (OLE) phase (see FIG. 1). The study consists of three phases and an optional OLE phase. […] Clinically, CSU is characterized by the spontaneous and recurrent appearance of pruritic hives. The proposed primary endpoints were the UAS7 at Week 12 in EU and EU reference countries and the ISS7 in the US. Regardless of where a participant was from, all assessments were the same. The UAS7 score is a composite score containing both the HSS7 and the ISS7. This allowed a global assessment of the two key components of urticaria: hives and itch. […] The UAS is a validated PRO measure. […] The daily UAS scores range from 0 to 6 point/day. […] Patients were to complete the UAS using the e-diary. […] The following secondary endpoints were to be analyzed using the same approach as for the primary endpoint: • Change from baseline in UAS7 at Week 4 • Change from baseline in UAS7 at Week 12 (for US and US reference countries) • Change from baseline in ISS7 at Week 12 (except US and US reference countries) • Change from baseline in HSS7 at Week 12

[1] = Week 4, 400 mg TID, Prior Omalizumab Use
[2] = Week 5, 400 mg BID, Omalizumab-Naïve
[3] = Week 5, 400 mg BID, Prior Omalizumab Use
[4] = Week 5, 400 mg QPM, Omalizumab-Naïve
[5] = Week 5, 400 mg QPM, Prior Omalizumab Use
[6] = Week 5, 400 mg TID, Omalizumab-Naïve
[7] = Week 5, 400 mg TID, Prior Omalizumab Use
[8] = Week 6, 400 mg BID, Omalizumab-Naïve
[9] = Week 6, 400 mg BID, Prior Omalizumab Use
[10] = Week 6, 400 mg QPM, Omalizumab-Naïve
[11] = Week 6, 400 mg QPM, Prior Omalizumab Use
[12] = Week 6, 400 mg TID, Omalizumab-Naïve
[13] = Week 6, 400 mg TID, Prior Omalizumab Use
[14] = Week 7, 400 mg BID, Omalizumab-Naïve
[15] = Week 7, 400 mg BID, Prior Omalizumab Use
[16] = Week 7, 400 mg QPM, Omalizumab-Naïve
[17] = Week 7, 400 mg QPM, Prior Omalizumab Use

CC(C)(C=C(C#N)C(=O)N1CCC[C@@H](n2nc(-c3ccc(Oc4ccccc4)cc3F)c3c(N)ncnc32)C1)N1CCN(C2COC2)CC1 [rilzabrutinib, (R)-2-[3-[4-amino-3-(2-fluoro-4-phenoxy-phenyl)pyrazolo[3,4-d]pyrimidin-1-yl]piperidine-1-carbonyl]-4-methyl-4-[4-(oxetan-3-yl)piperazin-1-yl]pent-2-enenitrile]
ISS7 Mean (SD) [1]: 6.17 (6.41)
ISS7 Median [1]: 5.42
ISS7 Percent change from baseline Mean (SD) [1]: −61.65 (32.63) %
ISS7 Percent change from baseline Median [1]: −62.50%
ISS7 Change from baseline Mean (SD) [2]: −6.55 (6.17)
ISS7 Change from baseline Median [2]: −6.42
ISS7 Mean (SD) [2]: 8.88 (6.81)
ISS7 Median [2]: 8.50
ISS7 Percent change from baseline Mean (SD) [2]: −43.73 (41.21) %
ISS7 Percent change from baseline Median [2]: −39.85%
ISS7 Change from baseline Median [3]: −14.50
ISS7 Mean (SD) [3]: 5.50 (8.54)
ISS7 Median [3]: 2.00
ISS7 Percent change from baseline Mean (SD) [3]: −68.33 (47.26) %
ISS7 Percent change from baseline Median [3]: −86.67%
ISS7 Change from baseline Mean (SD) [4]: −5.53 (4.98)
ISS7 Change from baseline Median [4]: −4.10
ISS7 Mean (SD) [4]: 11.00 (4.68)
ISS7 Percent change from baseline Mean (SD) [4]: −31.93 (26.18) %
ISS7 Percent change from baseline Median [4]: −30.00%
ISS7 Change from baseline Mean (SD) [5]: −10.00 (NC)
ISS7 Change from baseline Median [5]: −10.00
ISS7 Mean (SD) [5]: 11.00 (NC)
ISS7 Percent change from baseline Mean (SD) [5]: −47.62 (NC) %
ISS7 Percent change from baseline Median [5]: −47.62%
ISS7 Change from baseline Mean (SD) [6]: −9.18 (6.46)
ISS7 Change from baseline Median [6]: −9.00
ISS7 Mean (SD) [6]: 6.92 (5.87)
ISS7 Median [6]: 7.00
ISS7 Percent change from baseline Mean (SD) [6]: −55.68 (34.88) %
ISS7 Percent change from baseline Median [6]: −56.25%
ISS7 Mean (SD) [7]: 5.50 (6.53)
ISS7 Median [7]: 3.00
ISS7 Percent change from baseline Mean (SD) [7]: −66.60 (31.51) %
ISS7 Percent change from baseline Median [7]: −72.43%
ISS7 Change from baseline Mean (SD) [8]: −6.58 (5.90)
ISS7 Change from baseline Median [8]: −5.75
ISS7 Mean (SD) [8]: 8.85 (6.40)
ISS7 Percent change from baseline Mean (SD) [8]: −42.90 (39.02) %
ISS7 Percent change from baseline Median [8]: −33.40%
ISS7 Change from baseline Mean (SD) [9]: −10.13 (9.42)
ISS7 Change from baseline Median [9]: −14.00
ISS7 Mean (SD) [9]: 7.07 (8.32)
ISS7 Median [9]: 2.33
ISS7 Percent change from baseline Mean (SD) [9]: −56.44 (51.68) %
ISS7 Change from baseline Mean (SD) [10]: −6.59 (5.45)
ISS7 Change from baseline Median [10]: −5.00
ISS7 Mean (SD) [10]: 10.27 (5.26)
ISS7 Percent change from baseline Mean (SD) [10]: −38.20 (29.52) %
ISS7 Percent change from baseline Median [10]: −31.67%
ISS7 Change from baseline Mean (SD) [11]: −12.00 (NC)
ISS7 Change from baseline Median [11]: −12.00
ISS7 Mean (SD) [11]: 9.00 (NC)
ISS7 Median [11]: 9.00
ISS7 Percent change from baseline Mean (SD) [11]: −57.14 (NC) %
ISS7 Percent change from baseline Median [11]: −57.14%
ISS7 Change from baseline Mean (SD) [12]: −8.71 (6.32)
ISS7 Change from baseline Median [12]: −7.50
ISS7 Mean (SD) [12]: 7.32 (6.05)
ISS7 Median [12]: 7.00
ISS7 Percent change from baseline Mean (SD) [12]: −53.59 (35.59) %
ISS7 Percent change from baseline Median [12]: −50.00%
ISS7 Change from baseline Mean (SD) [13]: −12.83 (7.49)
ISS7 Change from baseline Median [13]: −14.50
ISS7 Mean (SD) [13]: 4.17 (6.88)
ISS7 Median [13]: 2.00
ISS7 Percent change from baseline Mean (SD) [13]: −75.50 (33.00) %
ISS7 Percent change from baseline Median [13]: −88.10%
ISS7 Change from baseline Mean (SD) [14]: −7.28 (5.95)
ISS7 Change from baseline Median [14]: −8.08
ISS7 Mean (SD) [14]: 8.21 (6.16)
ISS7 Median [14]: 7.00
ISS7 Percent change from baseline Mean (SD) [14]: −46.93 (37.51) %
ISS7 Percent change from baseline Median [14]: −56.35%
ISS7 Change from baseline Mean (SD) [15]: −10.40 (9.91)
ISS7 Change from baseline Median [15]: −13.00
ISS7 Mean (SD) [15]: 6.80 (8.56)
ISS7 Median [15]: 2.00
ISS7 Percent change from baseline Mean (SD) [15]: −57.33 (52.62) %
ISS7 Percent change from baseline Median [15]: −86.67%
ISS7 Change from baseline Mean (SD) [16]: −6.11 (5.15)
ISS7 Change from baseline Median [16]: −5.20
ISS7 Mean (SD) [16]: 10.68 (5.34)
ISS7 Percent change from baseline Mean (SD) [16]: −36.22 (29.09) %
ISS7 Percent change from baseline Median [16]: −37.78%
ISS7 Change from baseline Mean (SD) [17]: −13.00 (NC)
ISS7 Change from baseline Median [17]: −13.00
ISS7 Mean (SD) [17]: 8.00 (NC)
ISS7 Median [17]: 8.00
ISS7 Percent change from baseline Mean (SD) [17]: −61.90 (NC) %
ISS7 Percent change from baseline Median [17]: −61.90%
